In patent US20100168102A9, “Amide Derivatives as Kinase Inhibitors” (Devgen NV, priority 2005, published 2010):
Where a name gives a salt, the structure may show the parent alone. Read-outs that look alike come from different tables or passages of the source.

Legend:
PKC epsilon = molecular target: T1, PKC epsilon (Homo sapiens, UniProt Q02156); experiment: Biochemical assay for PKC epsilon (fluorescence polarization, Protein Kinase C Assay Kit, Red); details: read-out: IC50 μM PKCε
T1 construct: purchased Invitrogen P2282
T1 sequence (Q02156 1-737): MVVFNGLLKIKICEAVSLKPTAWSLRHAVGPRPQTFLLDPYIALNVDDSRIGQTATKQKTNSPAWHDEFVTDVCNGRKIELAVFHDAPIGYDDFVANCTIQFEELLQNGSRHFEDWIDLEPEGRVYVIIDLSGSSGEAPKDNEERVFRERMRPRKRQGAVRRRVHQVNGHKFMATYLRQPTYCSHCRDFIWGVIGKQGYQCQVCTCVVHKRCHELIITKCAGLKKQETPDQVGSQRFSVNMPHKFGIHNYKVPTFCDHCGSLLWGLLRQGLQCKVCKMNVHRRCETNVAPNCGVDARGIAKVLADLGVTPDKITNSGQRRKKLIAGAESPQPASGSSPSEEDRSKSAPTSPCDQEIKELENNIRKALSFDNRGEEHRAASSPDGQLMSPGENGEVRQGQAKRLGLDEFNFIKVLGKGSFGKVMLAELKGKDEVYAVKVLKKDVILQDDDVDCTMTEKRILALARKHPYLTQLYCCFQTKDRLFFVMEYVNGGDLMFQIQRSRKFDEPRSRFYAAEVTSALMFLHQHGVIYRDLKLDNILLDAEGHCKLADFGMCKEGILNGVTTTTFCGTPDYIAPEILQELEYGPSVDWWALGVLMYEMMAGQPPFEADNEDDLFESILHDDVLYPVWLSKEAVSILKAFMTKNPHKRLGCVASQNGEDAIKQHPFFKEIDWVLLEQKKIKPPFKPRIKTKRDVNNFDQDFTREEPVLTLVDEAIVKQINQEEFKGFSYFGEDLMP
How it was run: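 Read-out was fluorescence-polarization competition between phosphorylated substrate and a rhodamine PKC tracer for an anti-phosphoserine antibody, added with EDTA stop after an 80 min room-temperature kinase reaction with ATP and protein substrate (Mg2+/Ca2+ buffer). Enzyme (10 ng/ml final) was preincubated with compound for 30 min.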

human ROCKα/ROCKII mix = molecular target: T2, human ROCKα/ROCKII mix (Homo sapiens, UniProt O75116); experiment: Biochemical assay for ROCK (fluorescence polarization, ROCK IMAP Kit)
T2 construct: purchased Upstate Biotechnology 14-451
Procedure: The compounds were tested for inhibition of human ROCKα/ROCKII mix.
The inhibition assays were performed with a fluorescence polarization (FP) assay using the commercially available ROCK IMAP Kit from Molecular Devices (Product ID. No. R8093), essentially in accordance with the protocol supplied by the manufacturer. […] The enzyme mix ROCKα/ROCKII was obtained from Upstate Biotechnology (Product ID No 14-451).
In summary, the compound was screened in the wells of a 384 well plate for enzymatic inhibition with concentrations varying from 100 μM to 0.3 nM using a stepwise 3 (or 2)-fold dilution.
To perform the assay, 1 μl of a solution of the compound to be tested in DMSO (at each concentration) was added to 2 μl of a solution of the enzyme in 10 mM Tris-HCl , 10 mM MgCl2, 0.1% BSA, 0.05% NaN3, pH 7.2. The final concentration of the enzyme was 2.6 nM.
After incubating for 30 minutes at room temperature, 2 μl of a mixture of ATP and the protein substrate in 10 mM Tris-HCl, 10 mM MgCl2, 0.1% BSA, 0.05% NaN3, pH 7.2 was added. The final concentration of the ATP was 10 μM and final concentration of protein substrate was 0.2 μM.
After incubating for 60 minutes at room temperature, 12 μl of the IMAP Binding Solution (mix of the IMAP Binding Buffer A (1×) and the IMAP Binding Reagent (from the ROCK IMAP kit)) was added.
The mixture thus obtained (total volume: 17 μl) was incubated for 60 minutes at room temperature, upon which the fluorescence polarization was measured using an automated plate reader (Perkin Elmer, Model Envision 2100-0010 HTS) with FP filters: excitation filter FITC FP 480 and emission filters FITC FP P-pol 535 and FITC FP S-pol 535 (Perkin-Elmer). The results were fitted to a curve using the XL-Fit algorithm and IC50 values were calculated for each fitted curve, again using the XL-Fit algorithm.

[1] = Table 2, compounds of Formula XIII
[2] = compounds of Formula XIV, Table 3

T2 sequence (O75116 11-552 limits assumed): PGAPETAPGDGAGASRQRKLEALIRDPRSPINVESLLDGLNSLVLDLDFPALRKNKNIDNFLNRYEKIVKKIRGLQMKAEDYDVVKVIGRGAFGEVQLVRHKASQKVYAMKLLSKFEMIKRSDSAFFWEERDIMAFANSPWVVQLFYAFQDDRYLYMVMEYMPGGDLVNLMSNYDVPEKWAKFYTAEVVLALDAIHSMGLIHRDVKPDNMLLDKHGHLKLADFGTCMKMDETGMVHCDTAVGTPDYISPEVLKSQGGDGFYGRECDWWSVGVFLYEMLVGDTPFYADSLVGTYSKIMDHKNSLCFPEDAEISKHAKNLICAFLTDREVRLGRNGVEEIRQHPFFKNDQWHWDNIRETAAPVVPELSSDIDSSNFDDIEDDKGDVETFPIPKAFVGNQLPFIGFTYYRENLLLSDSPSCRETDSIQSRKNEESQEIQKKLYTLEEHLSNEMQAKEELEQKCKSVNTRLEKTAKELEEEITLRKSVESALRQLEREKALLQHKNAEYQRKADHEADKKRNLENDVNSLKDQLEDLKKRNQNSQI

| IC50 (PKC epsilon) | IC50 (human ROCKα/ROCKII mix) | Compound | other results |
| --- | --- | --- | --- |
|  |  | 4-{1-Amino-2-[(4-methoxy- cyclohexanecarbonyl)-amino]-ethyl}- N-pyridin-4-yl-benzamide [Compound 44] | IC50 (PKC epsilon; [1]): 5 to 50 µM; IC50 (human ROCKα/ROCKII mix; [1]): 0.5 to 5 µM |
|  |  | 4-{1-Amino-2-[(furan-2- ylmethyl)-carbamoyl]-ethyl}- N-pyridin-4-yl-benzamide [Compound 278] | IC50 (PKC epsilon; [2]): 0.5 to 5 µM; IC50 (human ROCKα/ROCKII mix; [2]): 0.05 to 0.5 µM |
|  |  | 4-{1-Amino-2-[(pyridin-2- ylmethyl)-carbamoyl]-ethyl}- N-pyridin-4-yl-benzamide [Compound 277] | IC50 (PKC epsilon; [2]): 0.5 to 5 µM; IC50 (human ROCKα/ROCKII mix; [2]): 0.05 to 0.5 µM |
|  |  | 4-{1-Amino-2-[(pyridin-4- ylmethyl)-carbamoyl]-ethyl}- N-pyridin-4-yl-benzamide [Compound 276] | IC50 (PKC epsilon; [2]): 0.5 to 5 µM; IC50 (human ROCKα/ROCKII mix; [2]): 0.05 to 0.5 µM |
|  |  | 4-{1-Amino-2-[(thiophen-2- ylmethyl)-carbamoyl]-ethyl}- N-pyridin-4-yl-benzamide [Compound 279] | IC50 (PKC epsilon; [2]): 0.5 to 5 µM; IC50 (human ROCKα/ROCKII mix; [2]): 0.05 to 0.5 µM |
|  |  | 4-{1-Amino-2-[ethyl-(4-nitro- benzyl}-carbamoyl]-ethyl)-N- pyridin-4-yl-benzamide [Compound 274] | IC50 (PKC epsilon; [2]): 0.5 to 5 µM; IC50 (human ROCKα/ROCKII mix; [2]): 0.05 to 0.5 µM |
|  |  | 4-{1-amino-2-[2-(4- trifluoromethyl-phenyl)- ethylcarbamoyl]-ethyl}-N- pyridin-4-yl-benzamide [Compound 309] | IC50 (PKC epsilon; [2]): 0.5 to 5 µM; IC50 (human ROCKα/ROCKII mix; [2]): 0.05 to 0.5 µM |
|  |  | 4-{1-amino-2-[2-(4-bromo-2- methoxy-phenyl)- ethylcarbamoyl]-ethyl}-N- pyridin-4-yl-benzamide [Compound 310] | IC50 (PKC epsilon; [2]): 0.5 to 5 µM; IC50 (human ROCKα/ROCKII mix; [2]): 0.05 to 0.5 µM |
|  |  | 4-{1-amino-2-[2-(4-methy)- octanoylamino]-ethyl}-N-pyridin-4-yl- benzamide [Compound 37] | IC50 (PKC epsilon; [1]): 0.5 to 5 µM; IC50 (human ROCKα/ROCKII mix; [1]): 0.05 to 0.5 µM |
| < 0.05 µM | < 0.05 µM | N[C@H](CC(=O)NC1COc2ccccc21)c1ccc(C(=O)Nc2ccncc2)cc1 (mixture of isomers) [Compound 403, 4-[(R)-1-Amino-2-(2,3-dihydro-benzofuran-3-ylcarbamoyl)-ethyl]-N-pyridin-4-yl-benzamide dihydrochloric acid salt] |  |
| 0.5 to 5 µM | 0.05 to 0.5 µM | N[C@@H](CC(=O)NC1COc2ccccc21)c1ccc(C(=O)Nc2ccncc2)cc1 (mixture of isomers) [Compound 404, 4-[(S)-1-Amino-2-(2,3-dihydro-benzofuran-3-ylcarbamoyl)-ethyl]-N-pyridin-4-yl-benzamide dihydrochloric acid salt] |  |
|  |  | CC(C)(C)ON=Cc1cccc(C(=O)NCC(N)c2ccc(C(=O)Nc3ccncc3)cc2)c1 (racemic) [Compound 101, 4-{1-amino-2-[(3-tert-butoxyimino-methyl)-benzoylamino]-ethyl}-N-pyridin-4-yl-benzamide] | IC50 (PKC epsilon; [1]): 0.5 to 5 µM; IC50 (human ROCKα/ROCKII mix; [1]): 0.5 to 5 µM |
|  |  | CC(C)(C)ON=Cc1ccc(C(=O)NCC(N)c2ccc(C(=O)Nc3ccncc3)cc2)cc1 (racemic) [Compound 102, 4-{1-amino-2-[(4-tert-butoxyimino-methyl)-benzoylamino]-ethyl}-N-pyridin-4-yl-benzamide] | IC50 (PKC epsilon; [1]): 5 to 50 µM; IC50 (human ROCKα/ROCKII mix; [1]): 0.5 to 5 µM |
|  |  | NC(CC(=O)NC1CCCc2ccccc21)c1ccc(C(=O)Nc2ccncc2)cc1 (single isomer, unassigned) [Compound 221] | IC50 (PKC epsilon; [2]): 0.05 to 0.5 µM; IC50 (human ROCKα/ROCKII mix; [2]): 0.05 to 0.5 µM |
|  |  | NC(CC(=O)NC1CCCc2ccccc21)c1ccc(C(=O)Nc2ccncc2)cc1 (single isomer, unassigned) [Compound 222] | IC50 (PKC epsilon; [2]): 5 to 50 µM; IC50 (human ROCKα/ROCKII mix; [2]): 0.05 to 0.5 µM |
| 0.5 to 5 µM | 0.5 to 5 µM | CCNC(=S)NCC(N)c1ccc(C(=O)Nc2ccncc2)cc1 (centres unmarked) [Compound 1, 4-[1-amino-2-(3-ethyl-thioureido)-ethyl]-N-pyridin-4-yl-benzamide] |  |
| 0.5 to 5 µM | 0.5 to 5 µM | CCCCNC(=O)NCC(N)c1ccc(C(=O)Nc2ccncc2)cc1 (centres unmarked) [Compound 2, 4-[1-amino-2-(3-butyl-ureido)-ethyl]-N-pyridin-4-yl-benzamide] |  |
| 0.5 to 5 µM | 0.5 to 5 µM | CC(C)(C)NC(=O)NCC(N)c1ccc(C(=O)Nc2ccncc2)cc1 (centres unmarked) [Compound 3, 4-[1-amino-2-(3-tert-butyl-ureido)-ethyl]-N-pyridin-4-yl-benzamide] |  |
| 0.5 to 5 µM | 0.5 to 5 µM | NC(CNC(=O)NC1CCCC1)c1ccc(C(=O)Nc2ccncc2)cc1 (centres unmarked) [Compound 4, 4-[1-amino-2-(3-cyclopentyl-ureido)-ethyl]-N-pyridin-4-yl-benzamide] |  |
| 5 to 50 µM | 0.5 to 5 µM | NC(CNC(=O)NC1CCCCC1)c1ccc(C(=O)Nc2ccncc2)cc1 (centres unmarked) [Compound 5, 4-[1-amino-2-(3-cyclohexyl-ureido)-ethyl]-N-pyridin-4-yl-benzamide] |  |
| 5 to 50 µM | 0.5 to 5 µM | CCOC(=O)CCNC(=O)NCC(N)c1ccc(C(=O)Nc2ccncc2)cc1 (centres unmarked) [Compound 6, 3-(3-{2-amino-2-[4-(pyridin-4-ylcarbamoyl)-phenyl]-ethyl}-ureido)-propionic acid ethyl ester] |  |
| 0.5 to 5 µM | 0.05 to 0.5 µM | NC(CNC(=O)NCc1ccccc1)c1ccc(C(=O)Nc2ccncc2)cc1 (centres unmarked) [Compound 7, 4-[1-amino-2-(3-benzyl-ureido)-ethyl]-N-pyridin-4-yl-benzamide] |  |
| 0.5 to 5 µM | 0.05 to 0.5 µM | Cc1ccc(CNC(=O)NCC(N)c2ccc(C(=O)Nc3ccncc3)cc2)cc1 (centres unmarked) [Compound 8, 4-{1-amino-2-[3-(4-methyl-benzyl)-ureido]-ethyl}-N-pyridin-4-yl-benzamide] |  |

| Compound | IC50 (PKC epsilon) | IC50 (human ROCKα/ROCKII mix) | other results |
| --- | --- | --- | --- |
| 4-{1-Amino-2-[methyl-(1- phenyl- cyclopropanecarbonyl)- amino]-ethyl}- N-pyridin-4-yl-benzamide [Compound 452] | 5 to 50 µM | 0.5 to 5 µM |  |
| 4-{1-Amino-2-[methyl-(1- thiophen-2-yl- cyclopropanecarbonyl)- amino]-ethyl}- N-pyridin-4-yl-benzamide [Compound 448] | 5 to 50 µM | 0.5 to 5 µM |  |
| 4-{1-Amino-2-[methyl-(1- thiophen-3-yl- cyclopropanecarbonyl)- amino]-ethyl}- N-pyridin-4-yl-benzamide [Compound 450] | 5 to 50 µM | 0.5 to 5 µM |  |
| 4-{1-Amino-2-[methyl-(2- methyl-2-thiophen-2-yl- propionyl)- amino]-ethyl}- N-pyridin-4-yl-benzamide [Compound 447] | 0.5 to 5 µM | 0.5 to 5 µM |  |
| 4-{1-Amino-2-[methyl-(2- methyl-2-thiophen-3-yl- propionyl)- amino]-ethyl}- N-pyridin-4-yl-benzamide [Compound 449] | 5 to 50 µM | 0.5 to 5 µM |  |
| 4-{1-Amino-2-[methyl-(2- naphthalen-1-yl-acetyl)- amino]-ethyl}- N-pyridin-4-yl-benzamide [Compound 435] | 5 to 50 µM | 0.5 to 5 µM |  |
| 4-{1-Amino-2-[methyl-(2- naphthalen-2-yl-acetyl)- amino]-ethyl}- N-pyridin-4-yl-benzamide [Compound 434] | 0.5 to 5 µM | 0.05 to 0.5 µM |  |
| 4-{Amino-[1-(2-1H-indol-3-yl-acetyl)-pyrrolidin-2-yl]-methyl}-N-pyridin-4-yl-benzamide [Compound 545] | 0.5 to 5 µM | 0.05 to 0.5 µM |  |
